{
  "source": "patent US20080260774A1",
  "about": "“Alpha-galactosyl ceramide analogs and their use as immunotherapies” (priority 2007, published 2008)",
  "test_system": "HA-specific peptide (9-mer)",
  "conditions": "mouse, in vivo",
  "data": [
    {"smiles": "CCCCCCCCCCCCCCCCCCCCCCCCCC(=O)N[C@@H](CO[C@H]1O[C@H](CO)[C@H](O)[C@H](O)[C@H]1O)[C@H](O)[C@H](O)CCCCCCCCCCCCCC", "note": "[C1, α-Galactosyl ceramide, reference compound]", "values": [
      {"measurement": "IFN-γ secreting cells", "value": "increased"}
    ]}
  ]
}
